For 31 compounds, activation results are on record in US9925189B2, “Heterocyclic receptor agonists for the treatment of diabetes and metabolic disorders” (CymaBay Therapeutics, Inc., priority 2006, dated 2018).

Structures are written as SMILES.

The target of the assay is T1, IC-GPCR2 (Homo sapiens, UniProt Q8TDV5, S309L).
T1 construct: expressed in transfected cells
T1 sequence (Q8TDV5 1-335 S309L): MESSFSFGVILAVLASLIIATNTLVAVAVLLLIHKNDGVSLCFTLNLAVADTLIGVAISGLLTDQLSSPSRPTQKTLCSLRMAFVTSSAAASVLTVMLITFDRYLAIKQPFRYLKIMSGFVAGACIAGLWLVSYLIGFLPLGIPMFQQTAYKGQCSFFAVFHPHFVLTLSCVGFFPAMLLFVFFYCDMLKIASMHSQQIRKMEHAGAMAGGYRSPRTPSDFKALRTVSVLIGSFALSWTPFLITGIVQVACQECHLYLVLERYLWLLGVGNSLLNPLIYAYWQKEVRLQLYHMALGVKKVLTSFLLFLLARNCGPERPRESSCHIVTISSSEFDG
The experiment in a line: Stimulation of cAMP in CHO cells stably expressing IC-GPCR2 (HTRF cAMP assay). Format: cell-based. Particulars: 0.5 h, 30 minutes, IC-GPCR2 stably expressing CHO cells, read-out: Activity at 10 uM (% change in FRET signal from DMSO control). Summed up:
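CHO cells stably expressing IC-GPCR2, plated at 17500 cells/well, treated next day for 30 min in Ham's F12 with compounds at 6–8 concentrations from 0.00003 to 10 μM; parental CHO cells also screened. Intracellular cAMP read by HTRF competitive immunoassay (665/620 nm ratio). Activity given as % FRET change from DMSO control.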
On the technique in general: In TR-FRET formats the signal depends on donor and acceptor labels being close together.
With `CC(C)(C)OC(=O)N1CCC(c2nc(COc3ccc(-n4cnnn4)c(F)c3)cs2)CC1` [Example 17, 4-[4-(3-Fluoro-4-tetrazol-1-yl-phenoxymethyl)-thiazol-2-yl]-piperidine-1-carboxylic acid tert-butyl ester], the activation at 10 µM was 69%.

As for `CCCCc1cnc(N2CCC(c3nc(COc4ccc(-n5cnnn5)cc4)cs3)CC2)nc1` [Example 190, 5-Butyl-2-{4-[4-(4-tetrazol-1-yl-phenoxymethyl)-thiazol-2-yl]-piperidin-1-yl}-pyrimidine], the activation at 10 µM worked out at 77%.

As for `Fc1cc(-n2cnnn2)ccc1OCc1csc(C2CCN(c3ncc(Cl)cn3)CC2)n1` [Example 195, 5-Chloro-2-{4-[4-(2-fluoro-4-tetrazol-1-yl-phenoxymethyl)-thiazol-2-yl]-piperidin-1-yl}-pyrimidine], the activation at 10 µM turned out to be 68%.

As for `CC(C)[C@@H]1CC[C@@H](C)C[C@H]1OC(=O)N1CCC(c2nc(COc3ccc(-n4cnnn4)cc3)cs2)CC1` [Example 38, 4-[4-(4-Tetrazol-1-yl-phenoxymethyl)-thiazol-2-yl]-piperidine-1-carboxylic acid 2-isopropyl-5-methyl-cyclohexyl ester], the activation at 10 µM amounted to 39%.

On to `CS(=O)(=O)c1ccc(OCc2csc(C3CCN(C(=O)Oc4ccc(F)cc4)CC3)n2)cc1` [Example 27, 4-[4-(4-Methanesulfonyl-phenoxymethyl)-thiazol-2-yl]-piperidine-1-carboxylic acid 4-fluoro-phenyl ester], for which the activation at 10 µM was 63%.

With `FC(F)(F)c1cnc(N2CCC(c3nc(COc4ccc(-n5cnnn5)cc4Cl)cs3)CC2)nc1` [Example 166, 2-{4-[4-(2-Chloro-4-tetrazol-1-yl-phenoxymethyl)-thiazol-2-yl]-piperidin-1-yl}-5-trifluoromethyl-pyrimidine], the activation at 10 µM was 74%.

Turning to `CC(C)(C)OC(=O)N1CCC(c2nc(COc3ccc(Br)cc3)cs2)CC1` [Example 140, 4-[4-(4-Bromo-phenoxymethyl)-thiazol-2-yl]-piperidine-1-carboxylic acid tert-butyl ester], the activation at 10 µM worked out at 62%.

For `C[C@H]1CN(c2ncc(Cl)cn2)CC[C@H]1c1nc(COc2ccc(-n3cnnn3)cc2F)cs1` (stereo in doubt) [Example 201, 5-Chloro-2-{4-[4-(2-fluoro-4-tetrazol-1-yl-phenoxymethyl)-thiazol-2-yl]-3-methyl-piperidin-1-yl}-pyrimidine], the activation at 10 µM came out at 87%.

Regarding `FC(F)(F)c1ccc(N2CCC(c3nc(COc4ccc(-n5cnnn5)cc4)cs3)CC2)nc1` [Example 71, 4-[4-(4-Tetrazol-1-yl-phenoxymethyl)-thiazol-2-yl]-5′-trifluoromethyl-3,4,5,6-tetrahydro-2H-[1,2′]bipyridinyl], the activation at 10 µM worked out at 88%.

For `Cc1cnc(N2CCC(c3nc(COc4ccc(-n5cnnn5)nc4)cs3)CC2)nc1` [Example 183, 5-Methyl-2-{4-[4-(6-tetrazol-1-yl-pyridin-3-yloxymethyl)-thiazol-2-yl]-piperidin-1-yl}-pyrimidine], the activation at 10 µM turned out to be 78%.

For the compound `Clc1cnc(N2CCC(c3nc(COc4ccc(-n5cnnn5)cc4Cl)cs3)CC2)nc1` [Example 165, 5-Chloro-2-{4-[4-(2-chloro-4-tetrazol-1-yl-phenoxymethyl)-thiazol-2-yl]-piperidin-1-yl}-1-pyrimidine], the activation at 10 µM was found to be 71%.

For the compound `CC(C)(C)OC(=O)N1CCC(C)(c2nc(COc3ccc(S(C)(=O)=O)cc3)cs2)CC1` [Example 78, 4-[4-(4-Methanesulfonyl-phenoxymethyl)-thiazol-2-yl]-4-methyl-piperidine-1-carboxylic acid tert-butyl ester], the activation at 10 µM was 43%.

For the compound `Cc1cc(-n2cnnn2)ccc1OCc1csc(C2CCN(C(=O)OC(C)(C)C)CC2)n1` [Example 118, 4-[4-(2-Methyl-4-tetrazol-1-yl-phenoxymethyl)-thiazol-2-yl]-piperidine-1-carboxylic acid tert-butyl ester], the activation at 10 µM is 64%.

Take `CC(C)(C)OC(=O)N1CCC(c2nc(COc3ccccc3)cs2)CC1` [Example 137, 4-(4-Phenoxymethyl-thiazol-2-yl)-piperidine-1-carboxylic acid tert-butyl ester]: the activation at 10 µM was 35%.

With `CC(C)(C)OC(=O)N1CCC(c2nc(CS(=O)(=O)c3ccc(S(C)(=O)=O)cc3)cs2)CC1` [Example 21, 4-[4-(4-Methanesulfonyl-benzenesulfonylmethyl)-thiazol-2-yl]-piperidine-1-carboxylic acid tert-butyl ester], the activation at 10 µM amounted to 23%.

For the compound `CC(C)(C)C(=O)CN1CCC(c2nc(COc3ccc(-n4cnnn4)cc3)cs2)CC1` [Example 151, 3,3-Dimethyl-1-{4-[4-(4-tetrazol-1-yl-phenoxymethyl)-thiazol-2-yl]-piperidin-1-yl}-butan-2-one], the activation at 10 µM came to 54%.

For `CCc1cnc(N2CCC(c3nc(COc4ccc(S(N)(=O)=O)cc4)cs3)CC2)nc1` [Example 9, 4-{2-[1-(5-Ethyl-pyrimidin-2-yl)-piperidin-4-yl]-thiazol-4-ylmethoxy}-benzenesulfonamide], the activation at 10 µM was found to be 54%.

`Fc1ccnc(N2CCC(c3nc(COc4ccc(-n5cnnn5)cc4)cs3)CC2)n1` [Example 178, 4-Fluoro-2-{4-[4-(4-tetrazol-1-yl-phenoxymethyl)-thiazol-2-yl]-piperidin-1-yl}-pyrimidine]: the activation at 10 µM amounted to 39%.

Take `COC(=O)N1CCC(c2nc(COc3ccc(S(C)(=O)=O)cc3)cs2)CC1` [Example 26, 4-[4-(4-Methanesulfonyl-phenoxymethyl)-thiazol-2-yl]-piperidine-1-carboxylic acid methyl ester]: the activation at 10 µM came to 58%.

Consider `Fc1cc(-n2cnnn2)ccc1OCc1csc(C2CCN(c3ncc(C(F)(F)F)cn3)CC2)n1` [Example 171, 2-{4-[4-(2-Fluoro-4-tetrazol-1-yl-phenoxymethyl)-thiazol-2-yl]-piperidin-1-yl}-5-trifluoromethyl-pyrimidine], for which the activation at 10 µM stood at 76%.

`CC(C)CS(=O)(=O)N1CCN(c2nc(COc3ccc(S(C)(=O)=O)cc3)cs2)CC1` [Example 92, 1-[4-(4-Methanesulfonyl-phenoxymethyl)-thiazol-2-yl]-4-(2-methyl-propane-1-sulfonyl)-piperazine]: the activation at 10 µM amounted to 14%.

As to `CCCCC(CC)COC(=O)N1CCC(c2nc(COc3ccc(-n4cnnn4)cc3)cs2)CC1` (stereo not shown) [Example 36, 4-[4-(4-Tetrazol-1-yl-phenoxymethyl)-thiazol-2-yl]-piperidine-1-carboxylic acid 2-ethyl-hexyl ester], the activation at 10 µM was determined as 95%.

As for `Clc1ccc(-c2cnc(N3CCC(c4nc(COc5ccc(-n6cnnn6)cc5)cs4)CC3)nc2)cc1` [Example 59], the activation at 10 µM was 70%.

Take `CCc1cnc(N2CCC(c3nc(COc4ccc(-n5cnnn5)nc4)cs3)CC2)nc1` [Example 182, 5-Ethyl-2-{4-[4-(6-tetrazol-1-yl-pyridin-3-yloxymethyl)-thiazol-2-yl]-piperidin-1-yl}-pyrimidine]: the activation at 10 µM is 78%.

`CC(C)(C)OC(=O)N1CCC(c2nc(CNc3ccc(F)nc3)cs2)CC1` [Example 94, 4-{4-[(6-Fluoro-pyridin-3-ylamino)-methyl]-thiazol-2-yl}-piperidine-1-carboxylic acid tert-butyl ester]: the activation at 10 µM was found to be 48%.

Regarding `O=[N+]([O-])c1cnc(N2CCC(c3nc(COc4ccc(-n5cnnn5)cc4)cs3)CC2)nc1` [Example 192, 5-Nitro-2-{4-[4-(4-tetrazol-1-yl-phenoxymethyl)-thiazol-2-yl]-piperidin-1-yl}-pyrimidine], the activation at 10 µM worked out at 74%.

Regarding `CC(C)OC(=O)N1CCC(c2nc(COc3ccc(S(C)(=O)=O)cc3)cs2)CC1` [Example 22, 4-[4-(4-Methanesulfonyl-phenoxymethyl)-thiazol-2-yl]-piperidine-1-carboxylic acid isopropyl ester], the activation at 10 µM stood at 62%.

Consider `FC(F)(F)c1cnc(N2CCC(c3nc(COc4ccc(-n5cnnn5)cc4)cs3)CC2)c(Cl)c1` [Example 193, 3′-Chloro-4-[4-(4-tetrazol-1-yl-phenoxymethyl)-thiazol-2-yl]-5′-trifluoromethyl-3,4,5,6-tetrahydro-2H-[1,2′]bipyridinyl], for which the activation at 10 µM turned out to be 35%.

Turning to `CC(C)(C)OCC(=O)N1CCC(c2nc(COc3ccc(-n4cnnn4)cc3)cs2)CC1` [Example 157, 2-tert-Butoxy-1-{4-[4-(4-tetrazol-1-yl-phenoxymethyl)-thiazol-2-yl]-piperidin-1-yl}-ethanone], the activation at 10 µM amounted to 57%.

In the case of `CCc1cnc(N2CCCC(c3nc(COc4ccc(-n5cnnn5)cc4)cs3)C2)nc1` (stereo not shown) [Example 105, 5-Ethyl-2-{3-[4-(4-tetrazol-1-yl-phenoxymethyl)-thiazol-2-yl]-piperidin-1-yl}-pyrimidine], the activation at 10 µM was determined as 52%.

As for `CN1CCN(C(=O)N2CCC(c3nc(COc4ccc(-n5cnnn5)cc4)cs3)CC2)CC1` [Example 44, (4-Methyl-piperazin-1-yl)-{4-[4-(4-tetrazol-1-yl-phenoxymethyl)-thiazol-2-yl]-piperidin-1-yl}-methanone], the activation at 10 µM is 53%.
